Active and inactive are the calls of the source. No rule for the calls is given here.
Assays:
[1] = tested on: HepG2 Trib1 mRNA qPCR, 24 h; test: activators of Trib1 transcript expression – cell-based, qPCR, dose response (AID 1053138)
[2] = as above; details: HepG2 Trib1 mRNA qPCR, 24 h; measured here: Trib1 mRNA max fold induction; stronger effect = higher value

| SMILES | AC50 [1] | fold change [2] |
| --- | --- | --- |
| CN1C(=O)c2cc(NC(=O)c3ccc(C(F)(F)F)cc3)ccc2OC[C@@H]2O[C@H](CC(=O)NC3Cc4ccccc4C3)CC[C@H]21 | > 25000 nM (inactive) | 1.3 |
| CN1C(=O)c2cc(NC(=O)c3ccc(C(F)(F)F)cc3)ccc2OC[C@@H]2O[C@H](CC(=O)NC3Cc4ccccc4C3)CC[C@@H]21 | 310 nM | 3.7 |
| CN1C(=O)c2cc(NC(=O)c3ccc(C(F)(F)F)cc3)ccc2OC[C@@H]2O[C@@H](CC(=O)NC3Cc4ccccc4C3)CC[C@@H]21 | 1700 nM | 2.7 |

From PubChem BioAssay AID1053138 (Broad Institute, 2014)
